Test results taken from PMC8815882, “Screening the pandemic response box identified benzimidazole carbamates, Olorofim and ravuconazole as promising drug candidates for the treatment of eumycetoma” (PLoS Neglected Tropical Diseases, 2022).
Like-named read-outs stand apart in the source and are kept apart here.

System: M. mycetomatis genome strain MM55
Assay: CLSI M38-A2 based in vitro susceptibility screening (XTT or resazurin), growth at fixed concentration
Assay type: cell-based, Madurella mycetomatis
Details: Madurella mycetomatis; for Percent fungal survival at 100 µM: read-out: Percentage survival at 100um, 100 uM A (second replicate column)
[1] = mean of three replicates, read-out: Percentage survival at 25um, 25 uM mean
[2] = replicate A, read-out: Percentage survival at 25um, 25 um A
[3] = replicate B, read-out: Percentage survival at 25um, 25 uM B
[4] = replicate C, read-out: Percentage survival at 25um, 25 uM C
[5] = first replicate column, read-out: Percentage survival at 100um, 100 uM A
[6] = mean of three replicates, read-out: Percentage survival at 100um, 100 uM mean
[7] = second replicate column, read-out: Percentage survival at 100um, 100 uM A
[8] = third replicate column, read-out: Percentage survival at 100um, 100 uM A
[9] = mean of replicates, read-out: Percentage survival at 25um, 25 uM mean
[10] = mean of replicates, read-out: Percentage survival at 100um, 100 uM mean
[11] = replicate 1, read-out: Percentage survival at 100um, 100 uM A
[12] = replicate 2, read-out: Percentage survival at 100um, 100 uM A
[13] = replicate 3, read-out: Percentage survival at 100um, 100 uM A
[14] = replicate 1, read-out: Percentage survival at 100um, 100 uM A (first replicate column)
[15] = replicate 3, read-out: Percentage survival at 100um, 100 uM A (third replicate column)

| Structure (SMILES) | activity at 25 µM [1] | activity at 25 µM [2] | activity at 25 µM [3] | activity at 25 µM [4] | activity at 100 µM [6] | activity at 25 µM [9] | activity at 100 µM [10] | activity at 100 µM [14] | Percent fungal survival at 100 µM (replicate 2) | activity at 100 µM [15] | also measured |
| --- | --- | --- | --- | --- | --- | --- | --- | --- | --- | --- | --- |
| COc1cccc(N2CCN(C3=Nc4c(F)cccc4[C@H](CC(=O)O)N3c3cc(C(F)(F)F)ccc3OC)CC2)c1 [MMV690653] | 91% | 89.7% | 103% | 80% | 86.8% |  |  |  |  |  | activity at 100 µM [5]: 86.6%; activity at 100 µM [7]: 87.2%; activity at 100 µM [8]: 86.5% |
| O=C(NO)C1(CS(=O)(=O)c2ccc(Oc3ccc(Cl)cc3)cc2)CCOCC1 [MMV690706] |  |  |  |  |  |  |  |  |  |  | activity at 25 µM (mean of replicates, MM55, read-out: Percentage survival at 25um, 25 uM mean): 82%; activity at 25 µM (replicate A, MM55, read-out: Percentage survival at 25um, 25 um A): 85.7%; activity at 25 µM (replicate B, MM55, read-out: Percentage survival at 25um, 25 uM B): 90.9%; activity at 25 µM (replicate C, MM55, read-out: Percentage survival at 25um, 25 uM C): 69.4%; activity at 100 µM (mean of replicates, MM55, read-out: Percentage survival at 100um, 100 uM mean): 68.5%; activity at 100 µM (replicate 1, MM55, read-out: Percentage survival at 100um, 100 uM A): 72.4%; activity at 100 µM (replicate 2, MM55, read-out: Percentage survival at 100um, 100 uM A): 62.8%; activity at 100 µM (replicate 3, MM55, read-out: Percentage survival at 100um, 100 uM A): 70.2% |
| CN(C)CCNC(=O)c1cccc2cccnc12 [MMV811071] |  | 90.3% | 90.7% | 71.6% |  | 84.2% | 85.2% |  |  |  | activity at 100 µM [11]: 79.4%; activity at 100 µM [12]: 92.5%; activity at 100 µM [13]: 83.6% |
| CCc1ccc(C2CC(C(F)(F)F)n3ncc(C(=O)NCc4ccc(OC)cc4)c3N2)cc1 (centres unmarked) [MMV831201] |  | 65% | 56.7% | 70.7% |  | 64.1% | 67.5% |  |  |  | activity at 100 µM [11]: 62%; activity at 100 µM [12]: 63%; activity at 100 µM [13]: 77.5% |
| Nc1cc(-c2nc3ccccc3[nH]2)n[nH]c1=O [MMV975972] | 97% | 99% | 101% | 90.7% | 95.6% |  |  | 105% | 90.7% | 91.4% |  |
| O=C1C=C(c2ccccc2)S(=O)(=O)c2ccccc21 [MMV1006203] |  | 59.6% | 126% | 9.78% |  | 65% | 26.1% | 63.3% | 4.04% | 10.9% |  |
| CC(C)Oc1cccc(NC(=O)c2ccccc2C(F)(F)F)c1 [MMV1009286] |  | 87.9% | 37.1% | 58% |  |  |  |  |  |  | activity at 25 µM (mean, read-out: Percentage survival at 25um, 25 uM mean): 61%; activity at 100 µM (mean, read-out: Percentage survival at 100um, 100 uM mean): 39%; activity at 100 µM (replicate (first column), read-out: Percentage survival at 100um, 100 uM A): 26.3%; activity at 100 µM (replicate (second column), read-out: Percentage survival at 100um, 100 uM A): 52.4%; activity at 100 µM (replicate (third column), read-out: Percentage survival at 100um, 100 uM A): 38.1% |
| O=C(c1ccc(F)cc1)N1CCN2C(=O)c3ccccc3C12c1ccccc1 (centres unmarked) [MMV1165877] | 89.2% | 90% | 95.6% | 82.1% | 76.1% |  |  | 85.4% | 71.7% | 71.2% |  |
| CC(C)(C)c1ccc(Oc2ccc(N)cc2)cc1 [MMV1174026] | 74% | 108% | 51.8% | 62.2% | 2.41% |  |  |  |  |  | activity at 100 µM [5]: -4.12%; activity at 100 µM [7]: 6.23%; activity at 100 µM [8]: 5.13% |
| CC(C)(C)c1cc(CCC(=O)N2CCC2)cc(C(C)(C)C)c1O [MMV1229204] |  |  |  |  |  |  |  |  |  |  | activity at 25 µM (mean of three, M. mycetomatis MM55, read-out: Percentage survival at 25um, 25 uM mean): 77.7%; activity at 25 µM (replicate A, M. mycetomatis MM55, read-out: Percentage survival at 25um, 25 um A): 91.6%; activity at 25 µM (replicate B, M. mycetomatis MM55, read-out: Percentage survival at 25um, 25 uM B): 84.3%; activity at 25 µM (replicate C, M. mycetomatis MM55, read-out: Percentage survival at 25um, 25 uM C): 57%; activity at 100 µM (mean of three, M. mycetomatis MM55, read-out: Percentage survival at 100um, 100 uM mean): 62.1%; activity at 100 µM (replicate 1, M. mycetomatis MM55, read-out: Percentage survival at 100um, 100 uM A (first replicate column)): 57.1%; Percent fungal survival at 100 µM (replicate 2, M. mycetomatis MM55): 64%; activity at 100 µM (replicate 3, M. mycetomatis MM55, read-out: Percentage survival at 100um, 100 uM A (third replicate column)): 65.1% |
